Test results as given in patent US20210220374A1, “METHODS OF TREATING TE[…]” (Clarus Therapeutics, Inc., priority 2013, published 2021).

Test: Probability model of serum T Cavg and Cmax distributions (titration dosing modeling)
Parameters: species or system hypogonadal men
Details: nominal model parameter, 200 mg T BID as TU, normal distribution
From the text: The fractions of the modeled patient population having their serum T Cavg and Cmax values falling within and/or outside of pre-specified limits and categories, as predicted from the probability model, were monitored and tabulated. The categories of interest were those identified by the FDA in its proposed guidelines for safe and effective hormone replacement therapy, as summarized in Table 2.
The probability model was based on the pharmacokinetic results obtained from the hypogonadal patient population that participated in the two multi-dose TU treatments in study LOT-A. As noted previously, 29 hypogonadal males participated in the study, 28 of them completed Treatment Period 1 (300 mg T, as TU, BID) and 24 of them completed Treatment Period 3 (200 mg T, as TU, BID).
Initially, the distribution of the calculated values of Cavg in the treated population was characterized by a mean and standard deviation assuming that the distribution fit either a normal distribution, or a log-normal distribution. […]
Second, a relationship was identified between serum T Cavg and Cmax using linear regression, such that given an hypothesized Cavg value, an expected value of Cmax could be determined (FIG. 5). […]
Fourth, the fraction of a treated population that fell within one of the 7 bins identified in Table 1 was calculated by: • 1. […]

## CCCCCCCCCCC(=O)O[C@H]1CC[C@H]2[C@@H]3CCC4=CC(=O)CC[C@]4(C)[C@H]3CC[C@]12C [TU, testosterone undecanoate]
  Mean Cavg (CV): 520 (39%)
